Laboratory results reported in the supplement of paper PMC9013687.
± gives the standard deviation of the averaged measurements.

Tests used:
Danio rerio embryo [1] = conditions: exposure time: 4 dpf
Method: (§1)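 Zebrafish embryos (UFZ-OBI strain) were exposed from 2 hpf for 48 h (2 dpf) or 96 h (4 dpf) at 28 °C; spontaneous tail coiling was scored at 25 hpf. Morphological features from automated image analysis (FishInspector), heart rate and locomotor response were fitted with drc models. Quantal endpoints were dichotomised at 2.5 SD from controls and fitted with a log-logistic model; heart rate, pigmentation and STC were normalised to the replicate control mean. Betamethasone was tested as betamethasone dipropionate, diflorasone as diflorasone diacetate.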

Danio rerio embryo [2] = conditions: exposure time: 4 dpf; remark: listed apart in the source
Method: as §1

Danio rerio embryo [3] = test: EC50 Body length_Decrease; conditions: exposure time: 4 dpf
Method: as §1

Danio rerio embryo [4] = test: EC50 Bladder size_Decrease; conditions: exposure time: 4 dpf
Method: as §1

Danio rerio embryo [5] = test: EC50 Pericard size_Increase
Method: as §1

Danio rerio embryo [6] = test: EC10 LMR dark; higher = less potent; conditions: exposure time: 4 dpf
Method: as §1

Danio rerio embryo [7] = test: EC20 LMR dark; higher = less potent; conditions: exposure time: 4 dpf
Method: as §1

Danio rerio embryo [8] = test: EC10 Lack of SB; higher = less potent; conditions: exposure time: 4 dpf
Method: as §1

Danio rerio embryo [9] = test: EC20 Lack of SB; higher = less potent; conditions: exposure time: 4 dpf
Method: as §1

Danio rerio embryo [10] = test: EC20 Body length_Decrease; higher = less potent; conditions: exposure time: 4 dpf
Method: as §1

Danio rerio embryo [11] = test: EC10 Body length_Decrease; higher = less potent; conditions: exposure time: 4 dpf
Method: as §1

Danio rerio embryo [12] = test: EC10 Bladder size_Decrease; higher = less potent; conditions: exposure time: 4 dpf
Method: as §1

Danio rerio embryo [13] = test: EC20 Bladder size_Decrease; higher = less potent; conditions: exposure time: 4 dpf
Method: as §1

Danio rerio embryo [14] = test: EC20 Pericard size_Increase; higher = less potent
Method: as §1

Danio rerio embryo [15] = test: EC10 Pericard size_Increase; higher = less potent
Method: as §1

Danio rerio embryo [16] = test: spontaneous tail coiling frequency (coils/min/embryo); higher = more spontaneous movement; conditions: 25 hpf
Method: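 Spontaneous tail coilings of zebrafish embryos exposed from 2 hpf were recorded at 24-25 hpf in 1-min videos and detected by a KNIME workflow from grey-value variance. Betamethasone was tested as the dipropionate, diflorasone as the diacetate.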

Danio rerio embryo [17] = system: Danio rerio embryo
Method: as §1

Danio rerio embryo [18] = test: EC50 Eye-jaw distance_Decrease; conditions: exposure time: 4 dpf
Method: as §1

Danio rerio embryo [19] = test: EC20 Any effect; higher = less potent
Method: as §1

Danio rerio embryo [20] = test: EC10 Any effect; higher = less potent; conditions: exposure time: 2 dpf
Method: as §1

Danio rerio embryo [21] = test: EC10 Pigmentation decrease; higher = less potent; conditions: exposure time: 4 dpf
Method: as §1

Danio rerio embryo [22] = test: EC20 Pigmentation decrease; higher = less potent; conditions: exposure time: 4 dpf
Method: as §1

Danio rerio embryo [23] = test: EC20 Eye-jaw distance_Decrease; higher = less potent; conditions: exposure time: 4 dpf
Method: as §1

Danio rerio embryo [24] = test: EC10 Eye-jaw distance_Decrease; higher = less potent; conditions: exposure time: 4 dpf
Method: as §1

Cc1cc2c(s1)Nc1ccccc1N=C2N1CCN(C)CC1 [Olanzapine]
Conditions | EC10 Bladder size Decrease [nM] | EC10 Body length Decrease [nM] | EC10 LMR dark [nM] | EC10 Lack of SB [nM] | EC20 Bladder size Decrease [nM] | EC20 Body length Decrease [nM] | EC20 LMR dark [nM] | EC20 Lack of SB [nM] | EC50 Bladder size Decrease [nM] | EC50 Body length Decrease [nM] | EC50 LMR dark [nM] | EC50 Lack of SB [nM]
Danio rerio embryo [1] | – | – | – | – | – | – | – | – | – | – | – | 9710
Danio rerio embryo [2] | – | – | – | – | – | – | – | – | – | – | 24000 | –
Danio rerio embryo [3] | – | – | – | – | – | – | – | – | – | 43800 | – | –
Danio rerio embryo [4] | – | – | – | – | – | – | – | – | 9130 | – | – | –
Danio rerio embryo [6] | – | – | 5650 | – | – | – | – | – | – | – | – | –
Danio rerio embryo [7] | – | – | – | – | – | – | 9630 | – | – | – | – | –
Danio rerio embryo [8] | – | – | – | 8090 | – | – | – | – | – | – | – | –
Danio rerio embryo [9] | – | – | – | – | – | – | – | 8650 | – | – | – | –
Danio rerio embryo [10] | – | – | – | – | – | 24700 | – | – | – | – | – | –
Danio rerio embryo [11] | – | 17700 | – | – | – | – | – | – | – | – | – | –
Danio rerio embryo [12] | 7170 | – | – | – | – | – | – | – | – | – | – | –
Danio rerio embryo [13] | – | – | – | – | 7840 | – | – | – | – | – | – | –

Conditions | EC10 Pericard size Increase [nM] | EC20 Pericard size Increase [nM] | EC50 Pericard size Increase [nM] | spontaneous tail coiling frequency
Danio rerio embryo [5], exposure time: 4 dpf | – | – | 53100 | –
Danio rerio embryo [14], exposure time: 4 dpf | – | 34100 | – | –
Danio rerio embryo [15], exposure time: 4 dpf | 26400 | – | – | –
Danio rerio embryo [16], 5.4 µM | – | – | – | 2.35 ± 0.46
Danio rerio embryo [16], 8.1 µM | – | – | – | 2.37 ± 0.57
Danio rerio embryo [16], 12.1 µM | – | – | – | 2.38 ± 0.45
Danio rerio embryo [16], 18.1 µM | – | – | – | 1.89 ± 0.88
Danio rerio embryo [16], 27.2 µM | – | – | – | 2.465 ± 0.0071
Danio rerio embryo [16], 32 µM | – | – | – | 2.44 ± 0.63

CCC(=O)OCC(=O)[C@@]1(OC(=O)CC)[C@@H](C)C[C@H]2[C@@H]3CCC4=CC(=O)C=C[C@]4(C)[C@@]3(F)[C@@H](O)C[C@@]21C [betamethasone dipropionate]
Conditions | EC10 Pericard size Increase [nM] | EC20 Any effect [nM] | EC20 Pericard size Increase [nM] | EC50 Any effect [nM] | EC50 Pericard size Increase [nM] | spontaneous tail coiling frequency
Danio rerio embryo [5], exposure time: 2 dpf | – | – | – | – | 10100 | –
Danio rerio embryo [5], exposure time: 4 dpf | – | – | – | – | 1350 | –
Danio rerio embryo [14], exposure time: 2 dpf | – | – | 437 | – | – | –
Danio rerio embryo [14], exposure time: 4 dpf | – | – | 0.209 | – | – | –
Danio rerio embryo [15], exposure time: 2 dpf | 70 | – | – | – | – | –
Danio rerio embryo [16], 0.02 µM | – | – | – | – | – | 2.32
Danio rerio embryo [16], 0.099 µM | – | – | – | – | – | 1.86
Danio rerio embryo [16], 0.198 µM | – | – | – | – | – | 2.45
Danio rerio embryo [16], 0.991 µM | – | – | – | – | – | 3.42
Danio rerio embryo [16], 1.24 µM | – | – | – | – | – | 3.65 ± 0.45
Danio rerio embryo [16], 2.48 µM | – | – | – | – | – | 4 ± 0.071
Danio rerio embryo [16], 3.964 µM | – | – | – | – | – | 2.3
Danio rerio embryo [16], 4.95 µM | – | – | – | – | – | 3.4 ± 0.27
Danio rerio embryo [16], 9.909 µM | – | – | – | – | – | 1.97
Danio rerio embryo [16], 9.91 µM | – | – | – | – | – | 3.29 ± 0.34
Danio rerio embryo [16], 19.82 µM | – | – | – | – | – | 3.34 ± 0.88
Danio rerio embryo [17], exposure time: 2 dpf | – | – | – | 882 | – | –
Danio rerio embryo [17], exposure time: 4 dpf | – | – | – | 253 | – | –
Danio rerio embryo [19], exposure time: 2 dpf | – | 4.31 | – | – | – | –
Danio rerio embryo [19], exposure time: 4 dpf | – | 0.298 | – | – | – | –

Conditions | EC10 Any effect [nM] | EC10 Eye-jaw distance Decrease [nM] | EC10 Pigmentation decrease [nM] | EC20 Eye-jaw distance Decrease [nM] | EC20 Pigmentation decrease [nM] | EC50 Eye-jaw distance Decrease [nM]
Danio rerio embryo [18] | – | – | – | – | – | 13100
Danio rerio embryo [20] | 0.192 | – | – | – | – | –
Danio rerio embryo [21] | – | – | 1610 | – | – | –
Danio rerio embryo [22] | – | – | – | – | 8440 | –
Danio rerio embryo [23] | – | – | – | 64 | – | –
Danio rerio embryo [24] | – | 3 | – | – | – | –

CC(=O)OCC(=O)[C@@]1(OC(C)=O)[C@@H](C)C[C@H]2[C@@H]3C[C@H](F)C4=CC(=O)C=C[C@]4(C)[C@@]3(F)[C@@H](O)C[C@@]21C [diflorasone diacetate]
Conditions | EC10 Bladder size Decrease [nM] | EC10 Eye-jaw distance Decrease [nM] | EC10 Lack of SB [nM] | EC20 Bladder size Decrease [nM] | EC20 Eye-jaw distance Decrease [nM] | EC20 Lack of SB [nM] | EC50 Bladder size Decrease [nM] | EC50 Eye-jaw distance Decrease [nM] | EC50 Lack of SB [nM]
Danio rerio embryo [1] | – | – | – | – | – | – | – | – | 379
Danio rerio embryo [4] | – | – | – | – | – | – | 176 | – | –
Danio rerio embryo [8] | – | – | 45 | – | – | – | – | – | –
Danio rerio embryo [9] | – | – | – | – | – | 99 | – | – | –
Danio rerio embryo [12] | 37 | – | – | – | – | – | – | – | –
Danio rerio embryo [13] | – | – | – | 66 | – | – | – | – | –
Danio rerio embryo [18] | – | – | – | – | – | – | – | 2380 | –
Danio rerio embryo [23] | – | – | – | – | 41 | – | – | – | –
Danio rerio embryo [24] | – | 4 | – | – | – | – | – | – | –

Conditions | EC10 Pericard size Increase [nM] | EC20 Pericard size Increase [nM] | EC50 Pericard size Increase [nM] | spontaneous tail coiling frequency
Danio rerio embryo [5], exposure time: 4 dpf | – | – | 2080 | –
Danio rerio embryo [14], exposure time: 4 dpf | – | 127 | – | –
Danio rerio embryo [15], exposure time: 4 dpf | 25 | – | – | –
Danio rerio embryo [16], 0.63 µM | – | – | – | 2.46
Danio rerio embryo [16], 1.2 µM | – | – | – | 2.87
Danio rerio embryo [16], 1.26 µM | – | – | – | 2.52
Danio rerio embryo [16], 2 µM | – | – | – | 2.33
Danio rerio embryo [16], 2.5 µM | – | – | – | 2.17
Danio rerio embryo [16], 3 µM | – | – | – | 1.89
Danio rerio embryo [16], 4 µM | – | – | – | 2.36
Danio rerio embryo [16], 6 µM | – | – | – | 2.7
Danio rerio embryo [16], 10.1 µM | – | – | – | 1.56
